Results published in publication PMC9784055, “Meroterpenoids and Steroids from the Marine-Derived Fungus Trametes sp. ZYX-Z-16” (Molecules, 2022).

Columns and labels:
[1] = tested on: Fusarium spp.; test: microbe, parasite or virus in culture; details: 48 h, read-out: Fusarium spp. MIC
Experimental: (§1) Four bacteria (Staphylococcus aureus ATCC6538, Bacillus subtilis ATCC 6633, Escherichia coli ATCC 25922, and Listeria monocytogenes ATCC 1911) were used for antibacterial evaluation for all compounds, referring to the previous method with ampicillin as a positive control. The bacteria inhibitory activity of all compounds was observed after 12 h in a constant temperature incubator at 37 °C. Five phytopathogens (Fusarium oxysporum f. sp. cubense, Fusarium spp., Peronophythora litchii, Colletotrichum gloeosporioides, and Hylocereus undatus) were used for antifungal evaluation for all compounds, referring to the previous broth microdilution method with carbendazim as a positive control. The fungal inhibitory activity of all compounds was observed after 48 h in a constant temperature incubator at 28 °C. […] Each test was performed in triplicate.

[2] = tested on: T1, Staphylococcus aureus; test: microbe, parasite or virus in culture; set-up: antibacterial 96-well microtiter plate assay, visible growth, 37 °C; details: 12 h
T1 construct: ATCC 6538
Excerpt: (§2) Four bacteria (Staphylococcus aureus ATCC6538, Bacillus subtilis ATCC 6633, Escherichia coli ATCC 25922, and Listeria monocytogenes ATCC 1911) were used for antibacterial evaluation for all compounds, referring to the previous method with ampicillin as a positive control. […] Five phytopathogens (Fusarium oxysporum f. sp. cubense, Fusarium spp., Peronophythora litchii, Colletotrichum gloeosporioides, and Hylocereus undatus) were used for antifungal evaluation for all compounds, referring to the previous broth microdilution method with carbendazim as a positive control. […] Each test was performed in triplicate. The inhibitory activity of all compounds against four bacteria (Staphylococcus aureus ATCC6538, Bacillus subtilis ATCC 6633, Escherichia coli ATCC 25922, and Listeria monocytogenes ATCC 1911) was evaluated using the 96-well microtiter plates method.

[3] = tested on: T2, Listeria monocytogenes; test: microbe, parasite or virus in culture; set-up: antibacterial 96-well microtiter plate assay, visible growth, 37 °C; details: 12 h
T2 construct: ATCC 1911
Excerpt: as §2

[4] = tested on: T3, Bacillus subtilis; test: microbe, parasite or virus in culture; set-up: antibacterial 96-well microtiter plate assay, visible growth, 37 °C; details: 12 h
T3 construct: ATCC 6633
Excerpt: as §2

[5] = tested on: T4, Escherichia coli; test: microbe, parasite or virus in culture; set-up: antibacterial 96-well microtiter plate assay, visible growth, 37 °C; details: 12 h
T4 construct: ATCC 25922
Excerpt: as §2

[6] = tested on: Colletotrichum gloeosporioides; test: microbe, parasite or virus in culture; set-up: antifungal broth microdilution, visible growth, 28 °C; details: 48 h
Experimental: as §1, with “triplicate. The inhibitory activities of all compounds against five phytopathogenic fungi (Fusarium oxysporum f. sp. cubense, Fusarium spp., Peronophythora litchii, Colletotrichum gloeosporioides, and Hylocereus undatus) were evaluated using the broth microdilution method.” for “triplicate.”

[7] = tested on: Peronophythora litchii; test: microbe, parasite or virus in culture; set-up: antifungal broth microdilution, visible growth, 28 °C; details: Phytophthora litchii, 48 h
Experimental: as §1, with “triplicate. The inhibitory activities of all compounds against five phytopathogenic fungi (Fusarium oxysporum f. sp. cubense, Fusarium spp., Peronophythora litchii, Colletotrichum gloeosporioides, and Hylocereus undatus) were evaluated using the broth microdilution method.” for “triplicate.”

[8] = tested on: Fusarium oxysporum f. sp. cubense; test: microbe, parasite or virus in culture; set-up: antifungal broth microdilution, visible growth, 28 °C; details: 48 h
Experimental: as §1, with “triplicate. The inhibitory activities of all compounds against five phytopathogenic fungi (Fusarium oxysporum f. sp. cubense, Fusarium spp., Peronophythora litchii, Colletotrichum gloeosporioides, and Hylocereus undatus) were evaluated using the broth microdilution method.” for “triplicate.”

[9] = target: α-glucosidase; test: α-glucosidase inhibition assay with p-NPG as substrate; format: biochemical

Structure (SMILES) | MIC [1] [µg/mL] | MIC [2] [µg/mL] | MIC [3] [µg/mL] | MIC [4] [µg/mL] | MIC [5] [µg/mL] | MIC [6] [µg/mL] | MIC [7] [µg/mL] | MIC [8] [µg/mL] | IC50 [9] [µM]
C[C@@H]1Cc2c3c(cc(O)c2C(=O)O1)O[C@@]1(C)[C@@H](O)C[C@H]2C(C)(C)C(=O)CC[C@]2(C)[C@@H]1C3 [compound 7, chrodrimanin H] | > 128 | > 128 | > 128 | > 128 | > 128 | > 128 | > 128 | > 128 | –
CC(=O)O[C@@H]1c2c3c(cc(O)c2C(=O)O[C@@H]1C)O[C@]1(C)[C@H](C3)[C@@]2(C)CCC(=O)C(C)(C)[C@@H]2C[C@@H]1O [compound 8, thailandolide B] | > 128 | > 128 | > 128 | > 128 | > 128 | > 128 | > 128 | > 128 | –
CC(C)[C@@H](C)/C=C/[C@@H](C)[C@H]1CC[C@H]2C3=C(CC[C@]12C)[C@@]1(C)CCC(=O)C=C1C=C3 [compound 9, ergosta-4,6,8,22E-tetraene-3-one] | > 128 | > 128 | > 128 | > 128 | > 128 | > 128 | > 128 | > 128 | –
CC(C)[C@@H](C)/C=C/[C@@H](C)[C@H]1CC[C@@]2(O)C3=CC(=O)C4=CC(=O)CC[C@]4(C)[C@H]3CC[C@]12C [compound 10, 14α-hydroxyergosta-4,7,22E-triene-3,6-dione] | > 128 | > 128 | > 128 | > 128 | > 128 | > 128 | > 128 | > 128 | 111
CC(C)C(C)C=CC(C)C1CCC2C3CC(O)C4=CC(=O)CCC4(C)C3CCC12C (stereo not drawn) [compound 13, ergosta-6α-hydroxy-4,22E-dien-3-one] | > 128 | > 128 | > 128 | > 128 | > 128 | > 128 | > 128 | > 128 | –
CO[C@@H]1C[C@H]([C@H](C)/C=C/[C@H](C)C(C)C)[C@@]2(C)CC[C@H]3C(=C12)C=CC1=CC(=O)CC[C@@]13C [compound 16, 15β-methoxy-ergosta-4,6,8(14),22E-tetraene-3-one] | > 128 | > 128 | > 128 | > 128 | > 128 | > 128 | > 128 | > 128 | –
CC(C)[C@@H](C)/C=C/[C@@H](C)[C@H]1CC(=O)C2=C3C=CC4=CC(=O)CC[C@]4(C)[C@@]3(O)CC[C@@]21C [compound 17, ganodermaside C] | > 128 | > 128 | > 128 | > 128 | > 128 | > 128 | > 128 | > 128 | –
CC(C)[C@@H](C)/C=C/[C@@H](C)[C@H]1C[C@H](O)C2=C3C=CC4=CC(=O)CC[C@]4(C)C3CC[C@@]21C (some centres unmarked) [compound 18, ganodermaside A] | > 128 | > 128 | > 128 | > 128 | > 128 | > 128 | > 128 | > 128 | –
